Holding throughout (type): cell-based
Assay [1] relates to lysosomal staining with LysoTracker DND‐99 (HDAC10 knockdown phenotype). The assay can be described thus: LysoTracker assay in SK-N-BE(2)C cells. As to conditions: 10 μM inhibitor, normalized to DMSO. As for the experimental part: LysoTracker assay: SK‐N‐BE(2)‐C cells were seeded into 6‐well dishes at a density of 1.5×10^5 cells per well. Cells were treated with inhibitor over night at concentrations indicated in the figure and stained the following day for 1 h with 50 nM LysoTracker® Red DND‐99 in medium under standard cell culture conditions. Cells were washed with ice‐cold RPMI without phenol‐red and trypsinized for 3 min at 37 °C. Detached cells were centrifuged for 3 min at 8600 g and re‐suspended in ice‐cold RPMI without phenol red. Mean LysoTracker fluorescence was quantified on a BD FACSCanto II platform using the PE filter setting. Data were normalized to mean LysoTracker fluorescence of solvent (DMSO) treated cells.

In assay [2] the test system is acetylation of histone H3 (HDAC1 substrate). The assay can be described thus: Western blot of histone H3 acetylation in SK-N-BE(2)C cells. As for the experimental part:
(§1) Western blot analysis of SMC3, tubulin and histone H3 acetylation: For the analysis of protein acetylation, 1.5–2×10^6 SK‐N‐BE(2)‐C cells were seeded per 10 cm dish and allowed to adhere overnight. Cells were treated for 18 h (Figure 4B) or 6 h (Figure 4E) with inhibitors at concentrations indicated in the respective figure. Cells were lysed in SDS lysis buffer (2 % w/v SDS, 10 % v/v glycerol, 1 mM DTT, 62.5 mM TRIS, pH 6.8) and proteins were denatured at 95 °C for 10 min. Cell debris was removed by centrifugation (15 000 g for 10 min at 12 °C). Western blot analysis was performed as described before.7a The following antibodies were used: anti‐acetylated tubulin (6‐11B‐1; Sigma) anti‐acetylated SMC3 (kindly provided by Katsuhiko Shirahige, Institute for Molecular and Cellular Biosciences, University of Tokyo, Japan),35 anti acetylated histone H3 (#06‐911, Millipore), anti histone H3 (#9715, Cell Signaling Technology) and anti β‐actin (#5441, Sigma‐Aldrich).
On the technique in general: In western blotting, separated proteins are transferred to a membrane and probed.

Assay [3] concerns SK‐N‐BE(2)C neuroblastoma cell line. Briefly: SK-N-BE(2)C cell viability assay (CellTiter-Blue). The conditions noted are these: SK-N-BE(2)C cells; for effect on cell viability: up to 100 μM. As for the experimental part:
Cell viability assay: SK‐N‐BE(2)C cells were cultured in Dulbecco's modified Eagle medium (DMEM, Lonza, Basel, Switzerland) supplemented with 10 % fetal calf serum (FCS, Sigma‐Aldrich) and 1 % non‐essential amino acids (NEAA, Lonza). SK‐N‐BE(2)C cells were seeded from a confluent flask into 96‐well plates in 100 μL full growth medium at a density of 5×10^3 cells per well the day before treatment. Cells were treated in triplicates with drug concentrations as indicated in the respective figure. Drugs were dosed from 50 mM and 200 mM stock solutions with a D300e Digital Dispenser (Tecan) and DMSO concentrations were normalized to 0.2 % for all wells. Plates were shaken (1000 rpm orbital shaker, 30 s) and incubated under standard culture conditions for 72 h. To each well 20 μL of CellTiter‐Blue® reagent (G8081, Promega) was added, plates were shaken (600 rpm orbital shaker, 20 s) and incubated at 37 °C overnight. Fluorescence was measured (extinction/emission: 570 nm/590 nm) on a FluoStar Optima (BMG Labtech) plate reader. Cell viability was normalized with untreated positive controls and cell‐free negative controls. IC50‐values were calculated as described in the BRET assay.
A general note: Resazurin is reduced to fluorescent resorufin, in cell work by metabolically active cells.

Assay [4] concerns acetylation of the HDAC8 substrate SMC3. The assay can be described thus: Western blot of SMC3 acetylation in SK-N-BE(2)C cells. As to conditions: relative to solvent control. As for the experimental part:
Western blot analysis of SMC3, tubulin and histone H3 acetylation: For the analysis of protein acetylation, 1.5–2×10^6 SK‐N‐BE(2)‐C cells were seeded per 10 cm dish and allowed to adhere overnight. Cells were treated for 18 h (Figure 4B) or 6 h (Figure 4E) with inhibitors at concentrations indicated in the respective figure. […] Cell debris was removed by centrifugation (15 000 g for 10 min at 12 °C).

Assay [5] deals with acetylation of tubulin (HDAC6 substrate). The assay can be described thus: Western blot of tubulin acetylation in SK-N-BE(2)C cells. How it is done: as §1

The values below come from article PMC7335359, “Design and Synthesis of Dihydroxamic Acids as HDAC6/8/10 Inhibitors” (Chemmedchem, 2020).

Turning to `CN(C)Cc1nn(Cc2ccc(C(=O)NO)cc2)c2ccccc12` [Compound 1g], the “lysosomal staining with LysoTracker DND-99 (HDAC10 knockdown phenotype)” value (“lysosomal staining” below) in assay [1] was “effective”.
As usually defined, the IC50 is the midpoint of a concentration-inhibition curve. Low values mean greater potency in that assay, high ones weaker potency in that assay. On to `O=C(NO)c1ccc(Cc2c[nH]c3ccc(C(=O)NO)cc23)cc1` [Compound 3d], for which, in assay [2], the “acetylation of histone H3 (HDAC1 substrate), Western blot” value was “significantly weaker effects”. This compound also returned an IC50 in assay [3] (72 h) of 7 µM. Besides, in assay [1], the “lysosomal staining” value is reported as “induces lysosomal acidification similar to Tubastatin A”. Also, the “acetylation of SMC3 (HDAC8 substrate), Western blot” value in assay [4] is “increases acetylation”. Also, the “acetylation of tubulin (HDAC6 substrate), Western blot” value in assay [5] is “increases acetylation”.
Take `CN(C)CCn1cc(Cc2ccc(C(=O)NO)cc2)c2cc(C(=O)NO)ccc21` [Compound 3e]: in assay [3], the “effect on cell viability” value is reported as “little effect”. For the same compound, the “lysosomal staining” value in assay [1] is recorded as “failed to produce an HDAC10 knockdown phenotype”.
`CN(C)Cc1nn(Cc2ccc(C(=O)NO)cc2)c2cc(C(=O)NO)ccc12` [Compound 3g]: the “effect on cell viability” value in assay [3] is given as “little effect”. The “lysosomal staining” value in assay [1] is “failed to produce an HDAC10 knockdown phenotype”. In addition, in assay [4], the “acetylation of SMC3 (HDAC8 substrate), Western blot” value was “no effect”.
